Test results reported in patent publication US20110207726A1, “Inhibitors of Human Cathepsin L, Cathepsin B, and Cathepsin S” (The Trustees of the University of Pennsylvania, priority 2008, published 2011).
Like-named read-outs stand apart in the source and are kept apart here.

Legend:
Format in all cases: biochemical
[1] = molecular target: T1, human liver cathepsin L (Homo sapiens, UniProt P07711); assay: Cathepsin L assay, IC50 determination
T1 construct: 8.7 ng/mL human liver cathepsin L (Calbiochem 219402); purchased Calbiochem 219402; host or cells: human liver
Experimental: Assay buffer consisted of 20 mM sodium acetate, 1 mM ethylenediaminetetraacetic acid (EDTA) and 5 mM cysteine, pH 5.5. Cathepsin L was incubated in assay buffer for 30 minutes prior to dispensing into wells to allow for efficient reduction of the active site cysteine required for full enzymatic activity.
Upon activation, cathepsin L (300 pM, 8.7 ng/mL) was incubated with 1 microM Z-Phe-Arg-AMC substrate (Sigma C9521) and test compound in […] of assay buffer for 1 hour at room temperature.
All reactions were performed in 20 mM sodium acetate buffer containing 5 mM cysteine and 1 mM EDTA, pH 5.5. Reaction progress was monitored using the Envision microplate reader. IC50 values were measured in triplicate.

[2] = molecular target: T2, Human liver cathepsin B (Homo sapiens, UniProt P07858); assay: Cathepsin B assay, IC50 determination
T2 construct: Human liver cathepsin B (Calbiochem 219362, 65 ng/mL); purchased Calbiochem 219362; host or cells: human liver
Experimental: (§1) Human spleen cathepsin S (Calbiochem 219344, 40 ng/mL) was assayed using 15 microM Z-Phe-Arg-AMC substrate. Human liver cathepsin B (Calbiochem 219362, 65 ng/mL) was assayed using 15 microM Z-Arg-Arg-AMC substrate (Bachem I-1135). All reactions were performed in 20 mM sodium acetate buffer containing 1 mM EDTA and 5 mM cysteine, pH 5.5.
(§2) Compounds were serially diluted in DMSO and transferred into a 96-well Corning 3686 assay microplate to give a 16-point two-fold serial dilution dose response ranging from 25 microM to 760 pM. Human liver cathepsin L (Calbiochem 219402) was activated by incubating with assay buffer for 30 min. Upon activation, cathepsin L (300 pM, 8.7 ng/mL) was incubated with 1 microM Z-Phe-Arg-AMC substrate (Sigma C9521) and test compound in […] of assay buffer for 1 hour at room temperature. Fluorescence of AMC released by enzyme-catalyzed hydrolysis of Z-Phe-Arg-AMC was read on a PerkinElmer Envision microplate reader (excitation 355 nm, emission 460 nm). Data were scaled using internal controls and fitted to a four-parameter logistic model (IDBS XLfit equation 205) to obtain IC50 values in triplicate.
(§3) Compound No. 1 was assayed for inhibition against papain and cathepsins B, G, K, S, and V. Papain from Carica papaya (Calbiochem 5125, 11 ng/mL), human cathepsin K (Calbiochem 342001, 35 ng/mL), human spleen cathepsin S (Calbiochem 219344, 40 ng/mL), and human cathepsin V (Calbiochem 219467, 39 ng/ml) were assayed using Z-Phe-Arg-AMC substrate at 20 μM, 20 μM, 15 μM, and 1 μM, respectively. Human liver cathepsin B (Calbiochem 219362, 65 ng/mL) was assayed using 15 μM Z-Arg-Arg-AMC substrate (Bachem I-1135). Human neutrophil cathepsin G (Calbiochem 219373, 4.2 μg/mL) was assayed using 15 μM Suc-Ala-Ala-Pro-Phe-AMC substrate (Sigma S9761). All reactions were performed in 20 mM sodium acetate buffer containing 5 mM cysteine and 1 mM EDTA, pH 5.5. Reaction progress was monitored using the Envision microplate reader. IC50 values were measured in triplicate.

[3] = molecular target: T3, Human spleen cathepsin S (Homo sapiens, UniProt P25774); assay: Cathepsin S assay, IC50 determination
T3 construct: Human spleen cathepsin S (Calbiochem 219344, 40 ng/mL); purchased Calbiochem 219344; host or cells: human spleen
Experimental: as §1, §2, §3

T3 sequence (P25774 115-331): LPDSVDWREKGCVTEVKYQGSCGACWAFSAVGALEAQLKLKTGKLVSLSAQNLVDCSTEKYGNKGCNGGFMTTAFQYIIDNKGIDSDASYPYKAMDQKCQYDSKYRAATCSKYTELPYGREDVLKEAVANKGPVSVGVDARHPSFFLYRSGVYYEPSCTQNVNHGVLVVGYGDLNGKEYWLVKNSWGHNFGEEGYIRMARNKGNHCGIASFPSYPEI
T1 sequence (P07711 114-288 limits assumed): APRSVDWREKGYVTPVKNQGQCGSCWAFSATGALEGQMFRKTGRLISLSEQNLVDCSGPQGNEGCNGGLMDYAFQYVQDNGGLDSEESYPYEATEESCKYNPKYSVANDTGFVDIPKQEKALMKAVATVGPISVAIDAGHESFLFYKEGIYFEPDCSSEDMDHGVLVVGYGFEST
T1 sequence (P07711 292-333 limits assumed): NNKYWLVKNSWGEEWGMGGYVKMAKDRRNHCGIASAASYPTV

SMILES	IC50 ([1]; Table 1, read-out: IC50 Cat L)	IC50 ([2]; Table 1, read-out: IC50 Cat B)	IC50 ([3]; Table 1, read-out: IC50 Cat S)	IC50 ([1]; Tables 2-11, read-out: Cat L)	IC50 ([2]; Tables 2-11, read-out: Cat B)	IC50 ([3]; Tables 2-11, read-out: Cat S)
CCc1ccccc1NC(=O)CSC(=O)NNC(=O)[C@H](CCSC)NC(=O)OC(C)(C)C [Compound No. 17]	1.29 µM	2.03 µM	0.69 µM			
CCc1ccccc1NC(=O)CSC(=O)NNC(=O)C[C@H](C)NC(=O)OC(C)(C)C [Compound No. 74]	> 25 µM	> 25 µM	> 25 µM			
CSCC[C@H](NC(=O)OC(C)(C)C)C(=O)NNC(=O)c1ccccc1 [Compound No. 116]				≥ 25 µM	≥ 25 µM	≥ 25 µM
CCc1ccccc1NC(=O)CSC(=O)NNC(=O)[C@H](C)CO [Compound No. 67]	> 25 µM	> 25 µM	> 25 µM			
CCc1ccccc1NC(=O)CSC(=O)NNC(=O)[C@@H](C)CO [Compound No. 69]	> 25 µM	> 25 µM	> 25 µM			
CC(C)(C)OC(=O)N[C@@H](COCc1ccccc1)C(=O)NNC(=O)SCC(=O)NCCc1c[nH]c2ccccc12 [Compound No. 53]	0.38 µM	> 25 µM	0.92 µM			
CSCC[C@H](NC(=O)OC(C)(C)C)C(=O)NNC(=S)SCC(=O)N1CCc2ccccc21 [Compound No. 126]				≥ 25 µM	≥ 25 µM	≥ 25 µM
CCc1ccccc1NC(=O)CSC(=O)NNC(=O)[C@H](CCCCNC(=O)OCc1ccccc1)NC(=O)OC(C)(C)C [Compound No. 58]	1.27 µM	14.3 µM	2.15 µM			
CC(C)(C)OC(=O)N[C@@H](Cc1c[nH]c2ccccc12)C(=O)N/N=C/c1ccccc1 [Compound No. 123]				≥ 25 µM	≥ 25 µM	≥ 25 µM
CC(C)(C)OC(=O)N[C@@H](Cc1c[nH]c2ccccc12)C(=O)NNC(=O)SCC(=O)N1CCCc2ccccc21 [Compound No. 5]	0.096 µM	4.46 µM	0.93 µM			
CCOC(=O)c1ccc(NC(=O)CSC(=O)NNC(=O)[C@H](Cc2c[nH]c3ccccc23)NC(=O)OC(C)(C)C)cc1 [Compound No. 9]	0.057 µM	> 25 µM	0.58 µM			
CCc1ccccc1NC(=O)CSC(=O)NNC(=O)[C@@H](C)COCc1ccc(OC)cc1 [Compound No. 72]	> 25 µM	> 25 µM	> 25 µM			
CC(C)(C)OC(=O)N[C@@H](Cc1c[nH]c2ccccc12)C(=O)NNC(=O)CCC(=O)N1CCCc2ccccc21 [Compound No. 115]				≥ 25 µM	≥ 25 µM	≥ 25 µM
CCc1ccccc1NC(=O)CSC(=O)NNC(=O)C[C@H](COCc1ccccc1)NC(=O)OC(C)(C)C [Compound No. 82]	> 25 µM	> 25 µM	4.47 µM			
CC(C)[C@H](NC(=O)OC(C)(C)C)C(=O)NNC(=O)SCC(=O)N1CCCc2ccccc21 [Compound No. 22]	0.68 µM	0.63 µM	4.24 µM			
O=C(CCc1c[nH]c2ccccc12)NNC(=O)CCc1c[nH]c2ccccc12 [Compound No. 114]				≥ 25 µM	≥ 25 µM	≥ 25 µM
CCc1ccccc1NC(=O)CSC(=O)NNC(=O)[C@@H](COCc1ccccc1)NC(=O)OC(C)(C)C [Compound No. 48]	15.4 µM	> 25 µM	4.42 µM			
CC(C)(C)OC(=O)N[C@@H](COCc1ccccc1)C(=O)NNC(=O)SCC(=O)N1CCc2ccccc2C1 [Compound No. 50]	0.37 µM	9.28 µM	0.95 µM			
C[C@@H](CC(=O)NNC(=O)SCC(=O)N1CCCc2ccccc21)NC(=O)OC(C)(C)C [Compound No. 75]	> 25 µM	> 25 µM	> 25 µM			
CCc1ccccc1NC(=O)CSC(=O)NNC(=O)[C@H](CC(C)C)NC(=O)OC(C)(C)C [Compound No. 29]	1.09 µM	2.63 µM	1.65 µM			
CCc1ccccc1NC(=O)CSC(=O)NNC(=O)CCc1c[nH]c2ccccc12 [Compound No. 73]	> 25 µM	> 25 µM	> 25 µM			
